Assay results reported in article PMC9468151, “Identification of a binding site on soluble RANKL that can be targeted to inhibit soluble RANK-RANKL interactions and treat osteoporosis” (Nature Communications, 2022).
pIC50: −log10 of the molar value. Several values for one entry are separate records, joined by “and”; a condition that tells them apart may be missing. Equal entries are not always repeated.

Legend:
[1] = system: sRANKL induced osteoclast differentiation; assay: In vitro anti-osteoclastogenesis activity determination (TRAP staining); type: cell-based, mouse; parameters: key to inhibition of osteoclastogenesis, dose-response (fig. S2a): % inhibition = 100 − (treated−unstimulated)/(untreated−unstimulated)×100; settings: for pIC50: read-out: OC IC50 (anti-osteoclastogenesis activity); for inhibition of osteoclastogenesis, dose-response (fig. S2a): three replicate columns
Protocol: Mouse osteoclasts were cultured according to the previously reported protocols. BMMs were plated in 96-well plates at a density of 6 × 10^3 cells/well with complete medium containing 10 ng/mL M-CSF. The following day, cells were then stimulated with 100 ng/mL sRANKL in the presence or absence of compounds with different concentrations every 2 days until osteoclasts formed. In order to calculate IC50, we set 9 concentrations for each compound and untreated and non-sRANKL unstimulating group as controls, each with triplicated repeated wells. After 5 days, cells were fixed with 4% paraformaldehyde and then applied TRAP-staining to identify osteoclasts by using the TRAP-staining kit. Osteoclasts number (OC No.) in each well was counted and the percentage of inhibition ratio was calculated as follows:1 OCinhibitoryratio%=100−OCNo.treated−OCNo.unstimulating/OCNo.untreated−OCNo.unstimulating×100%
The dosages and their correspondent osteoclastogenesis inhibitory activity curve and IC50 value were conducted by using Nonlinear regression (curve fit) analytic procedure in GraphPad Prism 8. Photographs of individual wells were taken using Leica microscope.

RAW264.7 cells = assay: In vitro cytotoxicity assay (MTT); type: cell-based, mouse; settings: RAW264.7, MTT
Protocol: MTT assay was used to determine cell viability. RAW264.7 cells in the logarithmic growth phase were cultured in 96-well plates with 6 × 10^3 cells in each well and incubated for 24 h. The surviving cells were then determined by MTT method. […] Cell growth inhibition ratio was calculated as follows: Cellgrowthinhibitionratio%=ODvehicle−ODtreaed/ODvehicle×100%
Cell cytotoxicity CC50 value were conducted by using Nonlinear regression (curve fit) analytic procedure in GraphPad Prism 8.

[2] = BMMs, M-CSF + 100 ng/mL sRANKL, 5 days, TRAP staining

| SMILES | OC IC50 (anti-osteoclastogenesis activity) [1, 2] | CC50 (RAW264.7 cells) [µM] | pIC50 [1, 2] | inhibition of osteoclastogenesis, dose-response (fig. S2a) ([1]; conc. 0.0023464 μM) | inhibition of osteoclastogenesis, dose-response (fig. S2a) ([1]; conc. 0.00774313 μM) | inhibition of osteoclastogenesis, dose-response (fig. S2a) ([1]; conc. 0.0255523 μM) | inhibition of osteoclastogenesis, dose-response (fig. S2a) ([1]; conc. 0.0843226 μM) | inhibition of osteoclastogenesis, dose-response (fig. S2a) ([1]; conc. 0.278265 μM) | inhibition of osteoclastogenesis, dose-response (fig. S2a) ([1]; conc. 0.918274 μM) | inhibition of osteoclastogenesis, dose-response (fig. S2a) ([1]; conc. 3.0303 μM) | inhibition of osteoclastogenesis, dose-response (fig. S2a) ([1]; conc. 10 μM) | inhibition of osteoclastogenesis, dose-response (fig. S2a) ([1]; conc. 33 μM) |
| --- | --- | --- | --- | --- | --- | --- | --- | --- | --- | --- | --- | --- |
| CC(=O)C(=NNc1ccccc1C(=O)O)C(=O)N1CCOCC1 [S3-18] | Inactive | 52.6 | – | – | – | – | – | – | – | – | – | – |
| CCOC(=O)c1sc(NC(=O)C(=NNc2ccc(C)cc2C(=O)O)C(C)=O)nc1C [S3-13] | – | > 100 | 4.97 | 1.735 and -0.7143 and 2.347 | 1.735 and -2.551 and 3.571 | 7.857 and -4.694 and -0.102 | 11.8367 and 3.878 and -9.592 | 11.2245 and 7.551 and -1.327 | 7.2449 and 6.633 and 3.571 | 7.2449 and 2.959 and -1.327 | 47.6531 and 40.3061 and 42.7551 | 100 |
| CCOC(=O)c1sc(NC(=O)C(=NNc2c(C)cccc2C(=O)O)C(C)=O)nc1C [S3-11] | – | 75.2 | – | 6.678 and -7.003 and 1.303 | -5.049 and 1.792 and -0.6515 | -0.6515 and 3.257 and 0.3257 | 5.212 and -2.117 and 3.746 | 16.4495 and 15.9609 and 19.3811 | 28.1759 and 21.3355 and 30.1303 | 50.1629 and 34.5277 and 49.6743 | 97.557 and 94.1368 and 98.0456 | 100 |
| COC(=O)c1cccc(NC(=O)C(=NNc2ccccc2C(=O)O)C(C)=O)n1 [S3-15-2] | – | > 100 | 5.90 | 11.9718 and 6.338 and 4.225 | 7.394 and 8.4507 and 9.155 | 9.507 and 6.338 and 9.155 | 31.6901 and 21.831 and 24.2958 | 33.0986 and 27.4648 and 28.169 | 47.1831 and 47.5352 and 44.3662 | 59.1549 (2×) and 58.0986 | 72.8873 and 71.1268 and 70.4225 | 88.3803 and 89.4366 and 88.7324 |
| CC(=O)C(=NNc1ccc(O)cc1C(=O)O)C(=O)Nc1ccccn1 [S3-15-3] | – | 62.8 | 5.44 | 7.632 and 19.0789 and 12.7632 | 4.079 and 5.263 and 2.105 | 2.105 and -3.421 and -3.026 | 11.579 and 29.3421 and 8.026 | 15.5263 and 26.9737 and 19.0789 | 44.7368 and 36.4474 and 37.6316 | 52.6316 and 53.8158 and 45.1316 | 64.4737 and 56.1842 and 57.3684 | 73.9474 and 72.3684 and 70.7895 |
| CCOC(=O)c1sc(NC(=O)C(=NNc2ccccc2C(=O)OC)C(C)=O)nc1C [S3-00] | – | 57.2 | – | 7.803 and 2.07 and 1.592 | 3.981 and 7.325 and 13.535 | -1.274 and 4.936 and 3.025 | 10.6688 and 9.713 and 2.07 | 4.936 and 4.4586 and 8.758 | 21.1783 and 12.5796 and 14.9681 | 46.9745 and 43.6306 and 45.5414 | 57.4841 and 67.9936 and 66.5605 | 93.3121 and 95.2229 and 92.8344 |
